Patent US20250381198A1 (Melt Pharmaceuticals, Inc., priority 2024, published 2025)

Key:
[1] = tested on: subjects undergoing cataract extraction with lens replacement (CELR); test: Phase 2: subject-rated worst pain during surgery by the numeric pain rating scale; type: in vivo, human; settings: Full Analysis Set; for Worst Pain During Surgery (NPRS), Mean / Worst Pain During Surgery (NPRS), Median: carry forward, MELT-300, midazolam 3 mg, ketamine 50 mg
[2] = tested on: subjects undergoing cataract extraction with lens replacement (CELR); test: Phase 2: subjects receiving opioid concomitant medication postoperatively; type: in vivo, human; settings: Full Analysis Set; percent of subjects
[3] = tested on: subjects undergoing cataract extraction with lens replacement (CELR); test: Phase 2: treatment-emergent ocular adverse events and serious adverse events; settings: for Cataract operation complication, % / Conjunctivitis bacterial, % / Corneal abrasion, % / Corneal oedema, % / Endophthalmitis, % / Eye disorders, % / Eye pain, % / Foreign body sensation in eyes, % / General disorders and administration site conditions, % / Infections and infestations, % / Injury, poisoning and procedural complications, % / Intraocular pressure increased, % / Investigations, % / Ocular hypertension, % / Pain, % / Paracentesis eye, % / Procedural pain, % / Subjects with Any Treatment-Emergent Ocular AEs, % / Vision blurred, %: Full Analysis Set; for Subjects who experienced a treatment-emergent ocular adverse event, study eye: overall, MELT-300, midazolam alone, ketamine alone
Description: The study eye (TABLE 32) non-study eye (TABLE 33), or either eye (TABLE 34) was assessed. TEAES were defined as events that started on or after the date of the study drug administration through the end of Visit 4 or early withdrawal. Subjects with one or more adverse event within a level of Medical Dictionary for Regulatory Activities (MedDRA) were counted only once in that level. […] TEAEs of special interest by system, organ class, and preferred term are provided in TABLE 35 for the full analysis set.

[4] = Non-Study Eye (as printed in Table 33)

**Q.** Which “Worst pain: Mean Difference versus Placebo” value [1] does the source give for Cc1ncc2n1-c1ccc(Cl)cc1C(c1ccccc1F)=NC2 [Midazolam, 8-chloro-6-(2-fluorophenyl)-1-methyl-4H-imidazo[1,5-a][1,4]benzodiazepine] here?
**A.** 0.05

**Q.** And the “Worst Pain During Surgery (NPRS), Mean” value [1]?
**A.** 4.0

**Q.** What about the “Worst Pain During Surgery (NPRS), Median” value [1] of the same compound?
**A.** 4.0

**Q.** And the “Worst pain: Mean Difference versus Ketamine” value ([1]; versus ketamine 50 mg)?
**A.** 0.38

**Q.** And the “Received Postoperative Opioid on Day 2-8: No, %” value [2]?
**A.** (100.0) %

**Q.** What about the “Received Postoperative Opioid on Day 2-8: Yes, %” value [2] of the same compound?
**A.** (0.0) %

**Q.** And the “Received Postoperative Opioid on Day 2: No, %” value [2]?
**A.** (100.0) %

**Q.** And the “Received Postoperative Opioid on Day 2: Yes, %” value [2]?
**A.** (0.0) %

**Q.** What about the “Cataract operation complication, %” value ([3]; Either Eye) of the same compound?
**A.** (0) %

**Q.** And the “Conjunctivitis bacterial, %” value ([3]; Either Eye)?
**A.** (0) %

**Q.** What about the “Corneal abrasion, %” value ([3]; Either Eye) of the same compound?
**A.** (0) %

**Q.** And the “Corneal oedema, %” value ([3]; Either Eye)?
**A.** (0) %

**Q.** And the “Endophthalmitis, %” value ([3]; Either Eye)?
**A.** (0) %

**Q.** And the “Eye disorders, %” value ([3]; Either Eye)?
**A.** (5.7) %

**Q.** What about the “Eye pain, %” value ([3]; Either Eye) of the same compound?
**A.** (3.4) %

**Q.** And the “Foreign body sensation in eyes, %” value ([3]; Either Eye)?
**A.** (0) %

**Q.** And the “General disorders and administration site conditions, %” value ([3]; Either Eye)?
**A.** (0) %

**Q.** And the “Infections and infestations, %” value ([3]; Either Eye)?
**A.** (0) %

**Q.** What about the “Injury, poisoning and procedural complications, %” value (“Injury … %” for short) ([3]; Either Eye) of the same compound?
**A.** (1.1) %

**Q.** And the “Intraocular pressure increased, %” value ([3]; Either Eye)?
**A.** (2.3) %

**Q.** And the “Investigations, %” value ([3]; Either Eye)?
**A.** (2.3) %

**Q.** What about the “Ocular hypertension, %” value ([3]; Either Eye) of the same compound?
**A.** (1.1) %

**Q.** What about the “Pain, %” value ([3]; Either Eye) of the same compound?
**A.** (0) %

**Q.** What about the “Paracentesis eye, %” value ([3]; Either Eye) of the same compound?
**A.** (0) %

**Q.** What about the “Procedural pain, %” value ([3]; Either Eye) of the same compound?
**A.** (1.1) %

**Q.** And the “Subjects with Any Treatment-Emergent Ocular AEs, %” value (“Subjects … %” for short) ([3]; Either Eye)?
**A.** (9.2) %

**Q.** What about the “Vision blurred, %” value ([3]; Either Eye) of the same compound?
**A.** (1.1) %

**Q.** What about the “Paracentesis eye, %” value [3, 4] of the same compound?
**A.** (0) %

**Q.** And the “Conjunctivitis bacterial, %” value ([3]; Non-Study Eye)?
**A.** (0) %

**Q.** What about the “Eye disorders, %” value ([3]; Non-Study Eye) of the same compound?
**A.** (1.1) %

**Q.** What about the “Eye pain, %” value ([3]; Non-Study Eye) of the same compound?
**A.** (0) %

**Q.** What about the “Infections and infestations, %” value ([3]; Non-Study Eye) of the same compound?
**A.** (0) %

**Q.** What about the “Subjects … %” value ([3]; Non-Study Eye) of the same compound?
**A.** (1.1) %

**Q.** What about the “Vision blurred, %” value ([3]; Non-Study Eye) of the same compound?
**A.** (1.1) %

**Q.** What about the “Cataract operation complication, %” value ([3]; Study Eye) of the same compound?
**A.** (0) %

**Q.** And the “Corneal abrasion, %” value ([3]; Study Eye)?
**A.** (0) %

**Q.** And the “Corneal oedema, %” value ([3]; Study Eye)?
**A.** (0) %

**Q.** What about the “Endophthalmitis, %” value ([3]; Study Eye) of the same compound?
**A.** (0) %

**Q.** What about the “Eye disorders, %” value ([3]; Study Eye) of the same compound?
**A.** (4.6) %

**Q.** What about the “Eye pain, %” value ([3]; Study Eye) of the same compound?
**A.** (3.4) %

**Q.** What about the “Foreign body sensation in eyes, %” value ([3]; Study Eye) of the same compound?
**A.** (0) %

**Q.** And the “General disorders and administration site conditions, %” value ([3]; Study Eye)?
**A.** (0) %

**Q.** And the “Infections and infestations, %” value ([3]; Study Eye)?
**A.** (0) %

**Q.** And the “Injury … %” value ([3]; Study Eye)?
**A.** (1.1) %

**Q.** And the “Intraocular pressure increased, %” value ([3]; Study Eye)?
**A.** (2.3) %

**Q.** And the “Investigations, %” value ([3]; Study Eye)?
**A.** (2.3) %

**Q.** What about the “Ocular hypertension, %” value ([3]; Study Eye) of the same compound?
**A.** (1.1) %

**Q.** What about the “Pain, %” value ([3]; Study Eye) of the same compound?
**A.** (0) %

**Q.** What about the “Procedural pain, %” value ([3]; Study Eye) of the same compound?
**A.** (1.1) %

**Q.** And the “Subjects … %” value ([3]; Study Eye)?
**A.** (8.0) %

**Q.** What about the “Subjects who experienced a treatment-emergent ocular adverse event, study eye” value [3] of the same compound?
**A.** 8.0%

**Q.** For CNC1(c2ccccc2Cl)CCCCC1=O (centres unmarked) [Ketamine, 2-(2-chlorophenyl)-2-(methylamino)cyclohexanone], which “Worst pain: Mean Difference versus Placebo” value [1] is on record?
**A.** −0.33

**Q.** What about the “Worst Pain During Surgery (NPRS), Mean” value [1] of the same compound?
**A.** 3.7

**Q.** And the “Worst Pain During Surgery (NPRS), Median” value [1]?
**A.** 4.0

**Q.** And the “Received Postoperative Opioid on Day 2-8: No, %” value [2]?
**A.** (100.0) %

**Q.** And the “Received Postoperative Opioid on Day 2-8: Yes, %” value [2]?
**A.** (0.0) %

**Q.** And the “Received Postoperative Opioid on Day 2: No, %” value [2]?
**A.** (100.0) %

**Q.** And the “Received Postoperative Opioid on Day 2: Yes, %” value [2]?
**A.** (0.0) %

**Q.** And the “Cataract operation complication, %” value ([3]; Either Eye)?
**A.** (0) %

**Q.** And the “Conjunctivitis bacterial, %” value ([3]; Either Eye)?
**A.** (1.2) %

**Q.** What about the “Corneal abrasion, %” value ([3]; Either Eye) of the same compound?
**A.** (0) %

**Q.** And the “Corneal oedema, %” value ([3]; Either Eye)?
**A.** (1.2) %

**Q.** What about the “Endophthalmitis, %” value ([3]; Either Eye) of the same compound?
**A.** (1.2) %

**Q.** What about the “Eye disorders, %” value ([3]; Either Eye) of the same compound?
**A.** (5.9) %

**Q.** And the “Eye pain, %” value ([3]; Either Eye)?
**A.** (3.5) %

**Q.** What about the “Foreign body sensation in eyes, %” value ([3]; Either Eye) of the same compound?
**A.** (0) %

**Q.** And the “General disorders and administration site conditions, %” value ([3]; Either Eye)?
**A.** (0) %

**Q.** And the “Infections and infestations, %” value ([3]; Either Eye)?
**A.** (2.4) %

**Q.** What about the “Injury … %” value ([3]; Either Eye) of the same compound?
**A.** (0) %

**Q.** What about the “Intraocular pressure increased, %” value ([3]; Either Eye) of the same compound?
**A.** (1.2) %

**Q.** What about the “Investigations, %” value ([3]; Either Eye) of the same compound?
**A.** (1.2) %

**Q.** And the “Ocular hypertension, %” value ([3]; Either Eye)?
**A.** (1.2) %

**Q.** What about the “Pain, %” value ([3]; Either Eye) of the same compound?
**A.** (0) %

**Q.** And the “Paracentesis eye, %” value ([3]; Either Eye)?
**A.** (0) %

**Q.** What about the “Procedural pain, %” value ([3]; Either Eye) of the same compound?
**A.** (0) %

**Q.** And the “Subjects … %” value ([3]; Either Eye)?
**A.** (8.2) %

**Q.** And the “Vision blurred, %” value ([3]; Either Eye)?
**A.** (0) %

**Q.** What about the “Paracentesis eye, %” value [3, 4] of the same compound?
**A.** (0) %

**Q.** And the “Conjunctivitis bacterial, %” value ([3]; Non-Study Eye)?
**A.** (1.2) %

**Q.** And the “Eye disorders, %” value ([3]; Non-Study Eye)?
**A.** (0) %

**Q.** What about the “Eye pain, %” value ([3]; Non-Study Eye) of the same compound?
**A.** (0) %

**Q.** What about the “Infections and infestations, %” value ([3]; Non-Study Eye) of the same compound?
**A.** (1.2) %

**Q.** What about the “Subjects … %” value ([3]; Non-Study Eye) of the same compound?
**A.** (1.2) %

**Q.** And the “Vision blurred, %” value ([3]; Non-Study Eye)?
**A.** (0) %

**Q.** And the “Cataract operation complication, %” value ([3]; Study Eye)?
**A.** (0) %

**Q.** What about the “Corneal abrasion, %” value ([3]; Study Eye) of the same compound?
**A.** (0) %

**Q.** What about the “Corneal oedema, %” value ([3]; Study Eye) of the same compound?
**A.** (1.2) %

**Q.** What about the “Endophthalmitis, %” value ([3]; Study Eye) of the same compound?
**A.** (1.2) %

**Q.** What about the “Eye disorders, %” value ([3]; Study Eye) of the same compound?
**A.** (5.9) %

**Q.** What about the “Eye pain, %” value ([3]; Study Eye) of the same compound?
**A.** (3.5) %

**Q.** And the “Foreign body sensation in eyes, %” value ([3]; Study Eye)?
**A.** (0) %

**Q.** What about the “General disorders and administration site conditions, %” value ([3]; Study Eye) of the same compound?
**A.** (0) %

**Q.** And the “Infections and infestations, %” value ([3]; Study Eye)?
**A.** (1.2) %

**Q.** What about the “Injury … %” value ([3]; Study Eye) of the same compound?
**A.** (0) %

**Q.** And the “Intraocular pressure increased, %” value ([3]; Study Eye)?
**A.** (1.2) %

**Q.** What about the “Investigations, %” value ([3]; Study Eye) of the same compound?
**A.** (1.2) %

**Q.** And the “Ocular hypertension, %” value ([3]; Study Eye)?
**A.** (1.2) %

**Q.** What about the “Pain, %” value ([3]; Study Eye) of the same compound?
**A.** (0) %

**Q.** And the “Procedural pain, %” value ([3]; Study Eye)?
**A.** (0) %

**Q.** What about the “Subjects … %” value ([3]; Study Eye) of the same compound?
**A.** (7.1) %

**Q.** And the “Subjects who experienced a treatment-emergent ocular adverse event, study eye” value [3]?
**A.** 7.1%
